{"source": "patent US11129867B2", "about": "“Method of treating cancer cells” (priority 2017, dated 2021)", "tested_on": "Caspase-3", "experiment": "Western blotting of Caspase-3", "type": "cell-based, human", "settings": "Ca922, 25 μM, treatment time up to 48 hours, FIG. 11B, 11C", "protocol": "Protein lysate of Ca922 cells treated with TMR-GBP 25 μM were blotted with antibodies against Caspase-3, Caspase-7, Caspase-9 and Poly (ADP-ribose) polymerase (PARP). Representative blots are shown.\nCa922 cells were treated with TMR-GBP and collected at indicated time points. Then blotted for Caspase-3 to observe whether TMR-GBP triggered […] apoptosis pathway.\nWestern Blotting Analysis\nCells were harvested by trypsion or scratch and lysed in RIPA buffer (50 mM Tris-HCl, pH 7.4, 150 mM NaCl, 0.1% SDS, 0.5% Sodium deoxycholate, 1% NP-40) supplemented with 1× protease inhibitor cocktail. Sample was incubated on ice for 30 minutes and scraped every 10 minutes. Centrifuge at 13,000 rpm at 4° C. for 15 minutes, then collect supernatant for analysis. Protein concentration was determined by Bradford assay. First, 5× Bradford assay dye reagent was diluted into […], and mixture with RIPA (as standard) or samples. Concentration was obtained by spectrophotometer measurement. Equal volume of 2× laemmli buffer containing β-ME was added into protein lysate for goal concentration. […] Washing the membrane three times with 1×PBST for every 5 minutes, protein band was detected by modified ECL (ddH2O, […] Tris pH8.0, 200 μM p-coumaric acid, 1.25 mM luminal, 0.001% H2O2) with ImageQuant LAS 4000 digital imaging system.", "note": "Where a SMILES comes first, the peptide text is derived from it. The star is where a group is joined. X1 = CN(C)c1ccc2c(-c3ccc(C(=O)*)cc3C(=O)[O-])c3ccc(=[N+](C)C)cc-3oc2c1", "data": [{"smiles": "CN(C)c1ccc2c(-c3ccc(C(=O)N[C@@H](CC(N)=O)C(=O)N[C@@H](Cc4ccc(O)cc4)C(=O)N[C@@H](CCCNC(=N)N)C(=O)N[C@@H](Cc4c[nH]c5ccccc45)C(=O)N[C@@H](CCCNC(=N)N)C(=O)N[C@@H](CS)C(=O)N[C@@H](CCCCN)C(=O)N[C@@H](CC(N)=O)C(=O)N[C@@H](CCC(N)=O)C(=O)N[C@@H](CC(N)=O)C(=O)O)cc3C(=O)[O-])c3ccc(=[N+](C)C)cc-3oc2c1", "note": "[TMR-GBP] (X1-NYRWRCKNQN-OH; N-terminus and C-terminus assumed)", "values": [{"measurement": "activation of caspase-3", "value": "did not activate"}]}]}
